{
  "source": "patent US10117912B2",
  "about": "(priority 2013, dated 2018)",
  "key": {"[1]": {"system": "alkaline phosphatase from bovine intestinal mucosa", "assay_type": "biochemical"}, "[2]": {"experiment": "Equilibrium solubility of phenytoin in assay buffer", "assay_type": "physicochemical", "experimental": "10 mg of phenytoin was added to a 20 mL scintillation vial containing 2 mL assay buffer, pH 7.4 (122 mM NaCl, 25 mM NaHCO3, 10 mM glucose, 10 mM HEPES, 3 mM KCl, 1.2 mM MgSO4, 1.4 mM CaCl2, and 0.4 mM K2HPO4). The vials were placed in a shaker incubator at different temperatures (28, 32 and 37° C.). After 48 h, drug suspension from vial was centrifuged at 13000 g for 20 min. Using a 0.2 μm syringe filter, the supernatant was filtered into a fresh glass vial and analyzed using HPLC. The experiments were performed in triplicate."}, "[3]": {"conditions": "prodrug S=6.1 with 0.6 IU/mL enzyme, 3 h"}},
  "note": "Where two headings read alike, the source gives them in different places.",
  "data": [
    {"compound": "O=C1NC(c2ccccc2)(c2ccccc2)C(=O)N1COP(=O)(O)O", "note": "[fosphenytoin, Fosphenytoin disodium]", "values": [
      {"measurement": "kcat", "setting": "[1]", "result": 2880, "unit": "s⁻¹"},
      {"measurement": "extent of conversion of prodrug to drug", "setting": "[1]; fosphenytoin 586 μM, various enzyme concentrations", "result": "Complete conversion"},
      {"measurement": "Vmax (Michaelis-Menten)", "setting": "[1]; pH 7.4", "result": "51.1 ± 1.8", "unit": "µM/min"},
      {"measurement": "Km", "setting": "[1]; pH 7.4, read-out: KM (Michaelis-Menten)", "result": "828 ± 81.6", "unit": "µM"},
      {"measurement": "membrane integrity (TEER)", "setting": "MDCKII-wt monolayer; 3 h treatment, pH 7.4, 32° C., enzyme alone or prodrug alone at S=0.8 or S=6.1", "result": "not compromised"},
      {"measurement": "TEER value", "setting": "MDCKII-wt monolayer; [3]", "result": "> 60", "unit": "ohms/cm^2"},
      {"measurement": "membrane integrity (TEER), prodrug with enzyme", "setting": "MDCKII-wt monolayer; [3]", "result": "minor compromise of intercellular tight junctions"}
    ]},
    {"compound": "O=C1NC(=O)C(c2ccccc2)(c2ccccc2)N1", "note": "[phenytoin]", "values": [
      {"measurement": "effect of temperature on solubility", "setting": "[2]; 28° C. and 37° C., pH 7.4", "result": "unaffected"},
      {"measurement": "solubility at 48 h", "setting": "[2]; aqueous buffer, thermodynamic from solid, pH 7.4 and 32° C., assay buffer, 48 h", "result": "126 ± 5.6", "unit": "µM"}
    ]},
    {"compound": "alkaline phosphatase", "values": [
      {"measurement": "membrane integrity (TEER)", "setting": "MDCKII-wt monolayer; pH 7.4", "result": "not compromised"}
    ]}
  ]
}
